Measurements: patent EP0810221A1 (MITSUBISHI CHEMICAL CORPORATION, priority 1995, dated 1996)

Columns and labels:
[1] = biological target: T1, cathepsin B (Sigma, C-6286) (Bos taurus, UniProt P07688); assay: Inhibitory activity against cathepsin B; format: biochemical; conditions: Inhibitory activity against cathepsin B (Table-5)
T1 construct: purchased Sigma C-6286
Method: Inhibitory activity against cathepsin B (Sigma, C-6286) was determined according to a method described in a literature (Biochemical Journal, Vol. 201, p. 189, 1982).

[2] = biological target: T2, m-Calpain (Rattus norvegicus, UniProt Q07009); assay: Inhibitory activity against calpain (m-Calpain purified from brains of rats); format: biochemical
T2 construct: m-Calpain was purified from brains of rats; from tissue; host or cells: rat brain
T2 sequence (Q07009 20-700 limits assumed): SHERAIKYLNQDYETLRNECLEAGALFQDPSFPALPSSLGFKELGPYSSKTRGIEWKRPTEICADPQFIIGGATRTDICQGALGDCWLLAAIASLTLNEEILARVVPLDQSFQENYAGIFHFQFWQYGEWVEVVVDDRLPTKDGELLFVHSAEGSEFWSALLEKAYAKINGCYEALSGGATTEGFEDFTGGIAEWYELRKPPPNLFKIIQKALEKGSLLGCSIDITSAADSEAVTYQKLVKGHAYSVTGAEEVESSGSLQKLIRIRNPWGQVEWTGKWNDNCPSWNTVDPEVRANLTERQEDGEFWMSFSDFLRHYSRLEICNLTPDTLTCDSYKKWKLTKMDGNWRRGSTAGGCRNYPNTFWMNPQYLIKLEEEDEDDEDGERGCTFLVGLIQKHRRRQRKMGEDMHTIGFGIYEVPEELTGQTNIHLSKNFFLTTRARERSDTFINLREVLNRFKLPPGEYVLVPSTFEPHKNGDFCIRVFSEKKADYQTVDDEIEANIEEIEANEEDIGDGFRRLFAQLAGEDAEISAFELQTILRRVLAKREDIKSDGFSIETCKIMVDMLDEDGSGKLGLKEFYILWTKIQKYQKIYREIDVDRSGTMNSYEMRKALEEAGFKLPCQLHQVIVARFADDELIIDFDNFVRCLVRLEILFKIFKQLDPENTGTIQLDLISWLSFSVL
T2 sequence (Q64537 1-270 partner): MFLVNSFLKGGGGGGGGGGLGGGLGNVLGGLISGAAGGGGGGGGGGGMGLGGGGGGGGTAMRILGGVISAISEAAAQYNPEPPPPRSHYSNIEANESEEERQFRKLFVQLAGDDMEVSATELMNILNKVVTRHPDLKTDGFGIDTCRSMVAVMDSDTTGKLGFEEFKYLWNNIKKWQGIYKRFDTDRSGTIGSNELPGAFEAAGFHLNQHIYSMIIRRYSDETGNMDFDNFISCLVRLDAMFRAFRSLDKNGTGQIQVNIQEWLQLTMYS
Method: m-Calpain was purified from brains of rats according to a method described in a literature (Journal of Biological Chemistry, Vol. 259, p. 3210, 1984), and the inhibitory activity was determined in a manner according to a published method (Journal of Biological Chemistry, Vol. 259, p. 12489, 1984).

[3] = Inhibitory activity against calpain (Table-6)
[4] = Inhibitory activity against calpain (continuation of Table-6)

| Compound | IC50 [1] | IC50 [2, 3] | IC50 [2, 4] |
| --- | --- | --- | --- |
| CC(C)C[C@H](NC(=O)c1ccc(F)cc1)C(=O)N[C@H]1CCOC1O (stereo partly drawn) [Example 42, (3S)-3-{(S)-2-(4-fluorobenzoylamino)-4-methylvalerylamino}-2-tetrahydrofuranol] | 0.55 µM | 0.82 µM | – |
| CC(C)C[C@H](NC(=O)OCc1ccccc1Cl)C(=O)N[C@H]1CCOC1O (stereo partly drawn) [Example 16, (3S)-3-{(S)-2-(2-chlorobenzyloxycarbonylamino)-4-methylvalerylamino}-2-tetrahydrofuranol] | 1 µM | 0.34 µM | – |
| CCC(C)[C@H](NC(=O)OCc1ccccc1)C(=O)N[C@H]1CCOC1O (stereo partly drawn) [Example 7, (3S)-3-((2S)-2-benzyloxycarbonylamino-3-methylvalerylamino)-2-tetrahydrofuranol] | 0.9 µM | 2.4 µM | – |
| CC(C)C[C@H](NC(=O)OCc1ccccn1)C(=O)N[C@H]1CCOC1O (stereo partly drawn) [Example 25, (3S)-3-{(S)-4-methyl-2-(2-pyridylmethoxycarbonylamino)valerylamino}-2-tetrahydrofuranol] | 2.9 µM | 1.05 µM | – |
| CC(C)C[C@H](NC(=O)Cc1cccc2ccccc12)C(=O)N[C@H]1CCOC1O (stereo partly drawn) [Example 33, (3S)-3-{(S)-4-methyl-2-(1-naphthylacetylamino)valerylamino}-2-tetrahydrofuranol] | 0.95 µM | 0.11 µM | – |
| CCC[C@H](NC(=O)OCc1ccccc1)C(=O)N[C@H]1CCOC1O (stereo partly drawn) [Example 4, (3S)-3-((S)-2-benzyloxycarbonylaminovalerylamino)-2-tetrahydrofuranol] | 0.7 µM | 0.9 µM | – |
| CC(C)C[C@H](NC(=O)c1ccccc1F)C(=O)N[C@H]1CCOC1O (stereo partly drawn) [Example 40, (3S)-3-{(S)-2-(2-fluorobenzoylamino)-4-metylvalerylamino}-2-tetrahydrofuranol] | 1 µM | – | – |
| CC(C)C[C@H](NC(=O)c1cccc2ccccc12)C(=O)N[C@H]1CCOC1O (stereo partly drawn) [Example 59, (3S)-3-{(S)-4-methyl-2-(1-naphthoylamino)valerylamino}-2-tetrahydrofuranol] | 0.8 µM | – | 0.4 µM |
| CC(C)C[C@H](NC(=O)OCC1CCCO1)C(=O)N[C@H]1CCOC1O (stereo partly drawn) [Example 23, (3S)-3-((S)-4-methyl-2-tetrahydrofurfuryloxycarbonylaminovalerylamino)-2-tetrahydrofuranol] | – | 1.1 µM | – |
| CC(C)C[C@H](NC(=O)OCc1cccc[n+]1[O-])C(=O)NC1CCOC1O (stereo partly drawn) [Example 26, 3-{(S)-4-methyl-2-(2-pyridylmethoxycarbonylamino)valerylamino)-2-tetrahydrofuranol N-oxide] | – | 1.4 µM | – |
| CC(C)C[C@H](NC(=O)OCC1c2ccccc2-c2ccccc21)C(=O)N[C@H]1CCOC1O (stereo partly drawn) [Example 22, (3S)-3-{(S)-2-(9-fluorenylmethoxycarbonylamino)-4-methylvalerylamino}-2-tetrahydrofuranol] | – | 0.41 µM | – |
| Cc1cc(C)c(C(=O)N[C@@H](CC(C)C)C(=O)N[C@H]2CCOC2O)c(C)c1 (stereo partly drawn) [Example 49, (3S)-3-{(S)-4-methyl-2-(2,4,6-trimethylbenzoylamino)valerylamino}-2-tetrahydrofuranol] | – | 0.68 µM | – |
| Cc1cccc(C)c1C(=O)N[C@@H](CC(C)C)C(=O)N[C@H]1CCOC1O (stereo partly drawn) [Example 47, (3S)-3-{(S)-2-(2,6-dimethylbenzoylamino)-4-methylvalerylamino)-2-tetrahydrofuranol] | – | 2.3 µM | – |
| COc1ccc(C(=O)N[C@@H](CC(C)C)C(=O)N[C@H]2CCOC2O)c(OC)c1 (stereo partly drawn) [Example 54, (3S)-3-{(S)-2-(2,4-dimethoxybenzoylamino)-4-methylvalerylamino}-2-tetrahydrofuranol] | – | 0.7 µM | – |
| COc1ccccc1C(=O)N[C@@H](CC(C)C)C(=O)N[C@H]1CCOC1O (stereo partly drawn) [Example 52, (3S)-3-{(S)-2-(2-methoxybenzoylamino)-4-methylvalerylamino)-2-tetrahydrofuranol] | – | 0.34 µM | – |
| Cc1ccc(C(=O)N[C@@H](CC(C)C)C(=O)N[C@H]2CCOC2O)cc1 (stereo partly drawn) [Example 46, (3S)-3-{(S)-4-methyl-2-(4-methylbenzoylamino)valerylamino}-2-tetrahydorofuranol] | 0.27 µM | – | – |
| COC(=O)N[C@@H](CC(C)C)C(=O)NC1CCOC1O (stereo partly drawn) [Example 9, 3-((S)-2-methoxycarbonylamino-4-methylvalerylamino)-2-tetrahydrofuranol] | – | 1.55 µM | – |

Now from value to compound:

| IC50 [1] | IC50 [2, 3] | IC50 [2, 4] | Compound |
| --- | --- | --- | --- |
| – | – | 0.5 µM | Cc1ccc(S(=O)(=O)N[C@@H](CC(C)C)C(=O)N[C@H]2CCOC2O)cc1 (stereo partly drawn) [Example 70, (3S)-3-{(S)-4-methyl-2-(4-methylphenylsulfonylamino)valerylamino}-2-tetrahydrofuranol] |
| – | – | 1.55 µM | CC(C)C[C@H](NC(=O)OCc1ccccc1)C(=O)N[C@H]1CCCOC1O (some centres unmarked) [Example 81] |
| 1.2 µM | – | 0.35 µM | CC(C)C[C@H](NC(=O)c1ccco1)C(=O)N[C@H]1CCOC1O (stereo partly drawn) [Example 61, (3S)-3-{(S)-2-(2-furoylamino)-4-methylvalerylamino}-2-tetrahydrofuranol] |
| – | – | 0.56 µM | CC(C)C[C@H](NS(=O)(=O)c1ccc(Cl)cc1)C(=O)N[C@H]1CCOC1O (stereo partly drawn) [Example 68, (3S)-3-{(S)-2-(4-chlorophenylsulfonylamino)-4-methylvalerylamino}-2-tetrahydrofuranol] |
| – | – | 0.95 µM | CC(C)C[C@H](NS(=O)(=O)c1cccc([N+](=O)[O-])c1)C(=O)N[C@H]1CCOC1O (stereo partly drawn) [Example 74, (3S)-3-{(S)-4-methyl-2-(3-nitrophenylsulfonylamino)valerylamino}-2-tetrahydrofuranol] |
| – | – | 0.74 µM | COc1ccc(S(=O)(=O)N[C@@H](CC(C)C)C(=O)N[C@H]2CCOC2O)cc1 (stereo partly drawn) [Example 73, (3S)-3-{(S)-2-(4-methoxyphenylsulfonylamino)-4-methylvalerylamino}-2-tetrahydrofuranol] |
| – | – | 0.35 µM | CC(C)C[C@H](NC(=O)C1CCc2ccccc2O1)C(=O)N[C@H]1CCOC1O (some centres unmarked) [Example 63] |
| – | – | 0.6 µM | CC(C)C[C@H](NS(=O)(=O)c1ccc(F)cc1)C(=O)N[C@H]1CCOC1O (stereo partly drawn) [Example 66, (3S)-3-{(S)-2-(4-fluorophenylsulfonylamino)-4-methylvalerylamino}-2-tetrahydrofuranol] |
| – | – | 0.62 µM | CC(C)C[C@H](NS(=O)(=O)c1ccc(Br)cc1)C(=O)N[C@H]1CCOC1O (stereo partly drawn) [Example 69, (3S)-3-{(S)-2-(4-bromophenylsulfonylamino)-4-methylvalerylamino}-2-tetrahydrofuranol] |
| – | – | 2.8 µM | CC(C)C[C@H](NS(=O)(=O)c1ccccc1)C(=O)N[C@H]1C(C)COC1O (stereo partly drawn) [Example 80, (3S)-4-methyl-3-((S)-4-methyl-2-phenylsulfonylaminovalerylamino)-2-tetrahydrofuranol] |
| 0.3 µM | – | – | O=C(N[C@@H](Cc1ccccc1)C(=O)N[C@H]1CCOC1O)OCc1ccccc1 (stereo partly drawn) [Example 78, (3S)-3-((S)-2-benzyloxycarbonylamino-3-phenylpropionylamino)-2-tetrahydrofuranol] |
| – | – | 0.39 µM | CC(C)C[C@H](NS(=O)(=O)c1ccc(C(C)(C)C)cc1)C(=O)N[C@H]1CCOC1O (stereo partly drawn) [Example 72, (3S)-3-{(S)-2-(4-tert-butylphenylsulfonylamino)-4-methylvalerylamino}-2-tetrahydrofuranol] |
| – | – | 0.45 µM | Cc1cc(C)c(S(=O)(=O)N[C@@H](CC(C)C)C(=O)N[C@H]2CCOC2O)c(C)c1 (stereo partly drawn) [Example 71, (3S)-3-{(S)-4-methyl-2-(2,4,6-trimethylphenylsulfonylamino)valerylamino}-2-tetrahydrofuranol] |
